Data as given in patent US8569384B2, “Antimicrobial compositions” (3M Innovative Properties Company, priority 2006, dated 2013).
Counter-ions that a name gives are not always drawn.

The compounds below were run on E. faecalis; ATCC #10741 (assay: Direct Inoculation Filter Assay (residual efficacy on filter paper)). Settings: 2.0% ester with 4.0% cetyl alcohol and CHG in dried waxy coatings (Table 3).
Format: cell-based, Enterococcus faecalis
Protocol: Direct Innoculation Filter Assay
This is an in vitro assay using filter paper to compare the residual efficacy of different surgical skin prep formulations.
Phosphate Buffered Water solution (PBW) was made by making a 0.25M stock solution by putting 34 grams KH2PO4 into 500 mL of DI water, adjusting the pH to 7.2 with 10N NaOH, and adding enough DI water to make 1 liter. The solution was filtered, sterilized, dispensed into a 1 liter sterile bottle, and stored under refrigeration. Butterfield's PBW was made by adding 1.25 mL of the stock solution to 900 mL of DI water and adding neutralizers, stirring, heating to dissolve the components, and diluting to 1 liter with DI water. The solution was mixed well, dispensed into two 500-mL bottles. The bottles containing the solution were autoclaved for 25 minutes at 121 degree C. The contents were carefully swirled after removing the bottles from the autoclave.
A Standard Sampling Solution (SSS) was prepared which contained: 0.4 grams KH2PO4, 10.1 grams Na2HPO4, 1.0 gram TRITON X-100 surfactant, 3.0 grams lecithin, 30.0 grams TWEEN 80, and deionized water to bring the total volume to 1 liter. […]
Onto each filter disc was pipetted 25 μL of each Example preparation or control. […] After 48 hours, colonies were counted and recorded.
The CFU/mL was determined by multiplying CFU count by dilution rate. The CFU/sample was calculated by multiplying the CFU/mL by 20, the amount of the SSS dilution. The log10 of the CFU/sample was calculated. […]

SMILES | Effect of emollient ester on bactericidal activity of the CHG
CC(C)OC(=O)CCCCC(=O)OC(C)C [diisopropyl adipate, Diisopropyl adipate] | significantly enhanced the bactericidal activity of the CHG
CCCCOC(=O)CC(O)(CC(=O)OCCCC)C(=O)OCCCC [tributyl citrate, Tributyl citrate] | significantly enhanced the bactericidal activity of the CHG
CCCCCCCCCCCCCCCC(=O)OC(C)C [isopropyl palmitate, Isopropyl palmitate] | did not enhance the activity of the CHG
